The source of these data is US20020010201A1 (priority 1999, published 2002).

One series concerns patients with RLS. Description: Treatment of 2 patients with RLS (therapeutic history, monotherapies and combination therapy of pramipexole and clonidine). The method, then: 1. […] The clonidine was also initially prescribed in a single dose of 0.075 mg two hours before bedtime and increased by 0.075 mg at intervals of 3 days.
2. Treatment with a Combination Therapy of Clonidine and Pramipexole After slowly bringing the clonidine therapy to a complete halt and after a treatment-free period of about 1 week, both patients were treated with a combination of 0.088 mg of pramipexole and 0.075 mg of clonidine. […] After 7 days the dosage of pramipexole had been increased to 0.18 mg and the dosage of clonidine to 0.15 mg, two hours before going to sleep.

For series [1], the system named is Restless Legs Syndrome patients. The conditions noted are these: cited from earlier work; for effectiveness in RLS: short-term therapy trials of dopamine agonists.
Setting [2] is: clonidine monotherapy, single dose before bedtime, 0.225 mg (male) / 0.45 mg (female).

For the compound `Cc1nnc2n1-c1sc(Br)cc1C(c1ccccc1Cl)=NC2` [Brotizolam], the “falling asleep and sleeping through” value in the series on patients with RLS (previous therapy, prescribed for limited time only) was “improved the falling asleep and sleeping through”.

With `NC(=O)N1c2ccccc2C=Cc2ccccc21` [Carbamazepine], in series [1] (a few partly open trials), the “relief from the complaint” value is recorded as “only partial relief from the complaint”.

`N[C@@H](Cc1ccc(O)c(O)c1)C(=O)O` [L-DOPA]: the “disadvantage of therapy (loss of effectiveness, rebound, augmentation)” value in series [1] (in vivo) is “effectiveness declines and/or there is a shift of the RLS problems to the morning (rebound) or afternoon (augmentation)”. Moreover, the “alleviation of the complaint” value in series [1] (long-term therapy, with improvement in quality of life and sleep) was “significant alleviation of the complaint”. Further, in the series on patients with RLS (human, in vivo), the augmentation result is “typical augmentation during the day”.

In the case of `CC(C)C[C@H]1C(=O)N2CCC[C@H]2[C@]2(O)O[C@](NC(=O)[C@@H]3C[C@@H]4c5cccc6[nH]cc(c56)C[C@H]4N(C)C3)(C(C)C)C(=O)N12` [alphadihydroergocryptine], the “effectiveness in RLS” value in series [1] was “found to be effective”.

Consider `C=CCN1C[C@H](C(=O)N(CCCN(C)C)C(=O)NCC)C[C@@H]2c3cccc4[nH]cc(c34)C[C@H]21` [cabergoline], for which the “effectiveness in RLS” value in series [1] is “found to be effective”.

For `Clc1cccc(Cl)c1NC1=NCCN1` [clonidine, 2-(2,6-dichloroanilino)-4,5-dihydroimidazole], in series [1] (4 open trials, 2 double-blind placebo-controlled trials, single case study, daily doses 0.1-0.9 mg), the “perceived symptoms such as paresthesia, compulsive movement and tiredness during the day” value is listed as “(statistically significant) reduction in perceived symptoms”. In series [1] (daily doses 0.1-0.9 mg), the “sleep latency (polysomnographic)” value is given as “shortened”. In series [1] (polysomnographic, daily doses 0.1-0.9 mg), the “quality of sleep, frequency of waking or periodic leg movements in sleep (PLMS)” value was “not affected”. Moreover, in the series on patients with RLS (setting [2]), the compulsive movements entry is on record as “had also improved”; the paresthesia entry is on record as “felt hardly any paresthesia”; the “quality of sleep and number of times they woke during the night” value was “had not changed”.

`CCN(CC)C(=O)N[C@H]1C=C2c3cccc4[nH]cc(c34)C[C@H]2N(C)C1` [lisuride]: the “effectiveness in RLS” value in series [1] is listed as “found to be effective”.

As to `CCCN1C[C@H](CSC)C[C@@H]2c3cccc4[nH]cc(c34)C[C@H]21` [pergolide], the “effectiveness in RLS” value in series [1] is on record as “found to be effective”. Further, the “side effects preventing further dose increase” value in the series with patients with RLS (previous therapy of the 2 RLS patients) is “side effects such as nausea, gastrointestinal problems and dizziness”.

Regarding `CCCN[C@H]1CCc2nc(N)sc2C1` [pramipexole, (S)-2-amino-6-n-propylamino-4,5,6,7-tetrahydro-benzothiazole], the “effectiveness in RLS” value in series [1] is reported as “found to be effective”. For the same compound, in the series on patients with RLS (pramipexole monotherapy, 0.088 mg two hours before bedtime, increased to 0.36 mg (male) / 0.27 mg (female) daily, no difference from earlier therapy), the symptoms entry is given as “symptoms certainly improved”.

On to `CCCN(CCC)CCc1cccc2c1CC(=O)N2` [ropinirol], for which the “effectiveness in RLS” value in series [1] was “found to be effective”.

Turning to bromocryptine, the “effectiveness in RLS” value in series [1] is reported as “found to be effective”.
